Test results published in US5441941A, “1,2-dihydroellipticines with activity against CNS specific cancer” (The United States of America as represented by the …, priority 1993, dated 1995).

Columns and labels:
UO-31 = experiment: NCI in vitro screen, SRB percent growth, Renal Cancer
OVCAR-3 = experiment: NCI in vitro screen, SRB percent growth, Ovarian Cancer
SW-620 = experiment: cells; conditions: Homo sapiens
NCI-H23 = experiment: NCI in vitro screen, SRB percent growth, Non-Small Cell Lung Cancer
Human tumor cell lines = experiment: NCI in vitro screen, overall result; conditions: Tables I and II
MOLT-4 = experiment: cells; conditions: Homo sapiens
HCC-2998 = experiment: cells; conditions: Homo sapiens
LXFL 529 = experiment: cells; conditions: Homo sapiens
CCRF-CEM = experiment: NCI in vitro screen, SRB percent growth, Leukemia
SNB-78 = experiment: NCI in vitro screen, SRB percent growth, CNS Cancer
KM12 = experiment: NCI in vitro screen, SRB percent growth, Colon Cancer
UACC-257 = experiment: NCI in vitro screen, SRB percent growth, Melanoma
SK-OV-3 = experiment: NCI in vitro screen, SRB percent growth, Ovarian Cancer
SNB-75 = experiment: NCI in vitro screen, SRB percent growth, CNS Cancer
DLD-1 = experiment: cells; conditions: Homo sapiens
SF-268 = experiment: NCI in vitro screen, SRB percent growth, CNS Cancer
EKVX = experiment: cells; conditions: Homo sapiens
[1] = Log10 Concentration -4.0, 100 µM
[2] = Log10 Concentration -7.0, 0.1 µM
[3] = SW-620, read-out: Percent Growth
[4] = MOLT-4, read-out: Percent Growth
[5] = HCC 2998, read-out: Percent Growth
[6] = LXFL 529, read-out: Percent Growth
[7] = DLD-1, read-out: Percent Growth

COc1ccc2[nH]c3c(C)c4c(c(C)c3c2c1)CN(C)C=C4 [Formula VII]
Percent Growth (UO-31; [1]): 10%
Percent Growth (UO-31; Log10 Concentration -5.0): 83%
Percent Growth (UO-31; Log10 Concentration -6.0, 1 µM): 101%
Percent Growth (UO-31; [2]): 112%
Percent Growth (UO-31; Log10 Concentration -8.0): 119%
TGI (UO-31; PG=0): > 100 µM
GI50 (UO-31; PG=+50): 28.4 µM
CC50 (UO-31; read-out: LC-50, PG=-50): > 100 µM
Percent Growth (OVCAR-3; [1]): -31%
Percent Growth (OVCAR-3; Log10 Concentration -5.0): 10%
Percent Growth (OVCAR-3; Log10 Concentration -6.0, 1 µM): 74%
Percent Growth (OVCAR-3; [2]): 91%
Percent Growth (OVCAR-3; Log10 Concentration -8.0): 98%
TGI (OVCAR-3; PG=0): 17.3 µM
GI50 (OVCAR-3; PG=+50): 2390 nM
CC50 (OVCAR-3; read-out: LC-50, PG=-50): > 100 µM
GI50 (SW-620; SW-620): 1050 nM
CC50 (SW-620; SW-620, read-out: LC-50): > 100 µM
activity at 0.01 µM (SW-620; [3]): 89%
activity at 0.1 µM (SW-620; [3]): 77%
activity at 1 µM (SW-620; [3]): 51%
activity at 10 µM (SW-620; [3]): 18%
activity at 100 µM (SW-620; [3]): -39%
IC (TGI) (SW-620; SW-620, read-out: TGI): 20.4 µM
Percent Growth (NCI-H23; [1]): -48%
Percent Growth (NCI-H23; Log10 Concentration -5.0): -26%
Percent Growth (NCI-H23; Log10 Concentration -6.0, 1 µM): 39%
Percent Growth (NCI-H23; [2]): 97%
Percent Growth (NCI-H23; Log10 Concentration -8.0): 112%
TGI (NCI-H23; PG=0): 4.02 µM
GI50 (NCI-H23; PG=+50): 648 nM
CC50 (NCI-H23; read-out: LC-50, PG=-50): > 100 µM
effect against many kinds of cancer (Human tumor cell lines): effective against many kinds of cancer
GI50 (MOLT-4; MOLT-4): 300 nM
CC50 (MOLT-4; MOLT-4, read-out: LC-50): > 100 µM
activity at 0.01 µM (MOLT-4; [4]): 110%
activity at 0.1 µM (MOLT-4; [4]): 68%
activity at 1 µM (MOLT-4; [4]): 30%
activity at 10 µM (MOLT-4; [4]): 8%
activity at 100 µM (MOLT-4; [4]): -27%
IC (TGI) (MOLT-4; MOLT-4, read-out: TGI): 16.7 µM
GI50 (HCC-2998; HCC 2998): 4.74 µM
CC50 (HCC-2998; HCC 2998, read-out: LC-50): 43.9 µM
activity at 0.01 µM (HCC-2998; [5]): 111%
activity at 0.1 µM (HCC-2998; [5]): 90%
activity at 1 µM (HCC-2998; [5]): 98%
activity at 10 µM (HCC-2998; [5]): 27%
activity at 100 µM (HCC-2998; [5]): -93%
IC (TGI) (HCC-2998; HCC 2998, read-out: TGI): 16.8 µM
GI50 (LXFL 529; LXFL 529): 129 nM
CC50 (LXFL 529; LXFL 529, read-out: LC-50): 29.1 µM
activity at 0.01 µM (LXFL 529; [6]): 66%
activity at 0.1 µM (LXFL 529; [6]): 54%
activity at 1 µM (LXFL 529; [6]): 14%
activity at 10 µM (LXFL 529; [6]): -38%
activity at 100 µM (LXFL 529; [6]): -64%
IC (TGI) (LXFL 529; LXFL 529, read-out: TGI): 1.88 µM
Percent Growth (CCRF-CEM; [1]): -10%
Percent Growth (CCRF-CEM; Log10 Concentration -5.0): 29%
Percent Growth (CCRF-CEM; Log10 Concentration -6.0, 1 µM): 78%
Percent Growth (CCRF-CEM; [2]): 92%
TGI (CCRF-CEM; PG=0): 54.5 µM
GI50 (CCRF-CEM; PG=+50): 3.65 µM
CC50 (CCRF-CEM; read-out: LC-50, PG=-50): > 100 µM
Percent Growth (SNB-78; [1]): -26%
Percent Growth (SNB-78; Log10 Concentration -5.0): -18%
Percent Growth (SNB-78; Log10 Concentration -6.0, 1 µM): 41%
Percent Growth (SNB-78; [2]): 98%
Percent Growth (SNB-78; Log10 Concentration -8.0): 98%
TGI (SNB-78; PG=0): 4.9 µM
GI50 (SNB-78; PG=+50): 683 nM
CC50 (SNB-78; read-out: LC-50, PG=-50): > 100 µM
Percent Growth (KM12; [1]): -86%
Percent Growth (KM12; Log10 Concentration -6.0, 1 µM): 28%
Percent Growth (KM12; [2]): 59%
Percent Growth (KM12; Log10 Concentration -8.0): 78%
TGI (KM12; PG=0): 2.32 µM
GI50 (KM12; PG=+50): 194 nM
CC50 (KM12; read-out: LC-50, PG=-50): 10.6 µM
Percent Growth (UACC-257; [1]): -5%
Percent Growth (UACC-257; Log10 Concentration -6.0, 1 µM): 108%
Percent Growth (UACC-257; [2]): 113%
Percent Growth (UACC-257; Log10 Concentration -8.0): 110%
TGI (UACC-257; PG=0): 80.7 µM
GI50 (UACC-257; PG=+50): 9.63 µM
CC50 (UACC-257; read-out: LC-50, PG=-50): > 100 µM
Percent Growth (SK-OV-3; [1]): -23%
Percent Growth (SK-OV-3; Log10 Concentration -5.0): 148%
Percent Growth (SK-OV-3; Log10 Concentration -6.0, 1 µM): 167%
Percent Growth (SK-OV-3; [2]): 159%
Percent Growth (SK-OV-3; Log10 Concentration -8.0): 192%
TGI (SK-OV-3; PG=0): 73.4 µM
GI50 (SK-OV-3; PG=+50): 73.4 µM
CC50 (SK-OV-3; read-out: LC-50, PG=-50): > 100 µM
Percent Growth (SNB-75; [1]): -58%
Percent Growth (SNB-75; Log10 Concentration -5.0): -78%
Percent Growth (SNB-75; Log10 Concentration -6.0, 1 µM): -53%
Percent Growth (SNB-75; [2]): 86%
Percent Growth (SNB-75; Log10 Concentration -8.0): 126%
TGI (SNB-75; PG=0): 416 nM
CC50 (SNB-75; read-out: LC-50, PG=-50): 953 nM
GI50 (DLD-1; DLD-1): 3.23 µM
CC50 (DLD-1; DLD-1, read-out: LC-50): > 100 µM
activity at 0.01 µM (DLD-1; [7]): 103%
activity at 0.1 µM (DLD-1; [7]): 99%
activity at 1 µM (DLD-1; [7]): 75%
activity at 10 µM (DLD-1; [7]): 26%
activity at 100 µM (DLD-1; [7]): -15%
IC (TGI) (DLD-1; DLD-1, read-out: TGI): 42.3 µM
Percent Growth (SF-268; [1]): -55%
Percent Growth (SF-268; Log10 Concentration -5.0): -45%
Percent Growth (SF-268; Log10 Concentration -6.0, 1 µM): 2%
Percent Growth (SF-268; [2]): 76%
Percent Growth (SF-268; Log10 Concentration -8.0): 91%
TGI (SF-268; PG=0): 1.1 µM
GI50 (SF-268; PG=+50): 223 nM
CC50 (SF-268; read-out: LC-50, PG=-50): 35 µM
GI50 (EKVX): 774 nM
activity at 0.01 µM (EKVX; read-out: Percent Growth): 114%
activity at 0.1 µM (EKVX; read-out: Percent Growth): 108%
activity at 1 µM (EKVX; read-out: Percent Growth): 43%
activity at 10 µM (EKVX; read-out: Percent Growth): 3%
activity at 100 µM (EKVX; read-out: Percent Growth): -11%
IC (TGI) (EKVX; read-out: TGI): 16.5 µM
